Our source for the mass density and Normal boiling temperature values is the NIST ThermoML archive (doi:10.1021/acs.jced.7b00241).

The conditions of the data set: Liquid; for mass density: 298.15 K, 101.33 kPa, Vibrating tube method; for Normal boiling temperature: Ebulliometric method (Recirculating still).

Numbers after ± are expanded uncertainties.

The mass density is the mass of a sample divided by its volume. As to `CC(C)CO` [2-methyl-1-propanol], the mass density came out at 798 ± 0.2 kg/m3 and the Normal boiling temperature stood at 107.83 ± 0.2 °C.
For `CC(=O)OCC(C)C` [2-methylpropyl ethanoate], the mass density is 866.2 ± 0.2 kg/m3 and the Normal boiling temperature came out at 116.8 ± 0.2 °C.
For `C[S+](C)[O-]` [dimethyl sulfoxide] the same measures were 1095.5 ± 0.2 kg/m3 and 190.70 ± 0.2 °C.
